Test results published in patent US10214546B2, “Btk inhibitors” (MERCK SHARP & DOHME CORP., priority 2014, dated 2019).
pIC50: −log10 of the molar value. Read-outs that look alike come from different tables or passages of the source.

What was measured:
[1] = target: BTK enzyme (recombinant full-length BTK, hBTK) (Homo sapiens (Human), UniProt Q06187); assay: BTK enzymatic activity LANCE TR-FRET assay; format: biochemical; conditions: 50 pM hBTK, 25 μM ATP, 2 μM biotin-A5-peptide; compound range 1 μM to 0.017 nM; read-out: BTK binding IC50
Sequence of BTK enzyme (recombinant full-length BTK, hBTK) (Q06187 whole entry): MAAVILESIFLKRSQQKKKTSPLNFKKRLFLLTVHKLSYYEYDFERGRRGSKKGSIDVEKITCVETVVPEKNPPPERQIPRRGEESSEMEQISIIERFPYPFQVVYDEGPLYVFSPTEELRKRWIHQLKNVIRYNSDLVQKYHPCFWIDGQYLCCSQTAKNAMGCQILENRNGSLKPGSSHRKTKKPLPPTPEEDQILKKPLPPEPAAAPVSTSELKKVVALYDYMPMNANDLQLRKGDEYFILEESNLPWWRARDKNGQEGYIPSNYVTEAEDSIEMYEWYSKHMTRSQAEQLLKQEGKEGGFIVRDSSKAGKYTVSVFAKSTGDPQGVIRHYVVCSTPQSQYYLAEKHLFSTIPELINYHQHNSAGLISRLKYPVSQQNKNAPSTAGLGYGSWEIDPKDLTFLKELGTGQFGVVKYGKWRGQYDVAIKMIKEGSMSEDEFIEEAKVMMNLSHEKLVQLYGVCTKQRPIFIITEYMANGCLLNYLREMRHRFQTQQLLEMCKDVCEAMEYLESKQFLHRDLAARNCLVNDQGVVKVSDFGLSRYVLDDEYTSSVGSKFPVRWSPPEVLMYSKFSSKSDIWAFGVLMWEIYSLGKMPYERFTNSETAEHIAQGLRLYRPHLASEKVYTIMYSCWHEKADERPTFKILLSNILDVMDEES

[2] = tested on: adenosine uptake into HeLa cells; assay: [3H]Adenosine uptake assay in HeLa cells; format: cell-based
Procedure, shortened: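 HeLa cells in HBSS + 5% FBS were preincubated 30 min at ambient temperature with compound (ten-point 1:3 series, 10 µM–[…] final), then given [3H]adenosine (added as a 500 nM solution) for 60 min. Cell-associated label was read by scintillating-plate proximity counting; IC50 from 4-parameter fit of cps versus log concentration.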

[3] = Homo sapiens, HeLa, [3H]adenosine accumulation in HeLa cells; compound range 10 μM to 0.032 nM; read-out: ADU inhibition IC50
[4] = [3H]adenosine accumulation in HeLa cells; compound range 10 μM to 0.032 nM; read-out: ADU inhibition IC50

Compound | pIC50 [1] | pIC50 [2, 3] | IC50 ([2]; Homo sapiens, HeLa, read-out: ADU inhibition IC50 (nM), [3H]adenosine accumulation in HeLa cells; compound range 10 μM to 0.032 nM) | pIC50 ([2]; read-out: ADU inhibition IC50; [3H]adenosine accumulation in HeLa cells; compound range 10 μM to 0.032 nM) | pIC50 [2, 4]
CO[C@](C)(c1ccc(-c2nc([C@@H]3CC[C@H]4CCC(=O)N4C3)n3ccnc(N)c23)cc1)c1cccc(C(F)(F)F)c1 [Example 89, (6R,8aS)-6-[8-amino-1-(4-{(1R)-1-methoxy-1-[3-(trifluoromethyl)phenyl]ethyl}phenyl)imidazo [1,5-a]pyrazin-3-yl]hexahydroindolizin-3(2H)-one] | 6.00 | 5.46 | – | – | –
CO[C@@](C)(c1ccc(-c2nc([C@@H]3CC[C@H]4CCC(=O)N4C3)n3ccnc(N)c23)cc1)c1cccc(C(F)(F)F)c1 [Example 90, (6R,8aS)-6-[8-amino-1-(4-{(1S)-1-methoxy-1-[3-(trifluoromethyl)phenyl]ethyl}phenyl)imidazo [1,5-a]pyrazin-3-yl]hexahydroindolizin-3(2H)-one] | 6.00 | 6.01 | – | – | –
CCc1cccc([C@@](C)(O)c2ccc(-c3nc([C@@H]4CC[C@H]5CCC(=O)N5C4)n4ccnc(N)c34)cc2)c1 [Example 92, (6R,8aS)-6-(8-amino-1-{4-[(1S)-1-(3-ethylphenyl)-1-hydroxyethyl]phenyl}imidazo[1,5-a]pyrazin-3-yl)hexahydroindolizin-3(2H)-one] | 9.32 | 6.21 | – | – | –
CCc1cccc([C@](C)(O)c2ccc(-c3nc([C@@H]4CC[C@H]5CCC(=O)N5C4)n4ccnc(N)c34)cc2)c1 [Example 93, (6R,8aS)-6-(8-amino-1-(4-[(1R)-1-(3-ethylphenyl)-1-hydroxyethyl]phenyl}imidazo[1,5-a]pyrazin-3-yl)hexahydroindolizin-3(2H)-one] | 9.82 | 5.86 | – | – | –
C[C@](O)(c1ccc(-c2nc([C@@H]3CC[C@H]4CCC(=O)N4C3)n3ccnc(N)c23)cc1)c1cccc(OC2CC2)c1 [Example 94, (6R,8aS)-6-[8-amino-1-(4-{(1S)-1-[3-(cyclopropyloxy)phenyl]-1-hydroxyethyl}phenyl)imidazo[1,5-a]pyrazin-3-yl]hexahydroindolizin-3(2H)-one] | 6.70 | 6.10 | – | – | –
C[C@@](O)(c1ccc(-c2nc([C@@H]3CC[C@H]4CCC(=O)N4C3)n3ccnc(N)c23)cc1)c1cccc(OC2CC2)c1 [Example 95, (6R,8aS)-6-[8-amino-1-(4-{(1R)-1-[3-(cyclopropyloxy)phenyl]-1-hydroxyethyl}phenyl)imidazo[1,5-a]pyrazin-3-yl]hexahydroindolizin-3(2H)-one] | 8.74 | 5.70 | – | – | –
NC(=O)C(O)(c1ccc(-c2nc([C@@H]3CC[C@H]4CCC(=O)N4C3)n3ccnc(N)c23)cc1)c1cccc(C(F)(F)F)c1 (stereo partly drawn) [Example 96, 2-(4-{8-amino-3-[(6R,8aS)-3-oxooctahydroindolizin-6-yl]imidazo[1,5-a]pyrazin-1-yl}phenyl)-2-hydroxy-2-[3-(trifluoromethyl)phenyl] acetamide] | 6.24 | – | 7140 nM | – | –
NC(=O)C(O)(c1ccc(-c2nc([C@@H]3CC[C@H]4CCC(=O)N4C3)n3ccnc(N)c23)cc1)c1cccc(C(F)(F)F)c1 (stereo partly drawn) [Example 97, 2-(4-{8-amino-3-[(6R,8aS)-3-oxooctahydroindolizin-6-yl]imidazo[1,5-a]pyrazin-1-yl}phenyl)-2-hydroxy-2-[3-(trifluoromethyl)phenyl] acetamide] | 6.05 | – | – | 5.00 | –
COc1cc(-c2nc([C@@H]3CC[C@H]4CCC(=O)N4C3)n3ccnc(N)c23)ccc1[C@](C)(O)c1cccc(C2CC2)c1 [Example 98, (6R,8aS)-6-(8-amino-1-{4-[(1R)-1-(3-cyclopropylphenyl)-1-hydroxyethyl]-3-methoxyphenyl}imidazo [1,5-a]pyrazin-3-yl)hexahydroindolizin-3(2H)-one] | 9.55 | 5.50 | – | – | –
COc1cc(-c2nc([C@@H]3CC[C@H]4CCC(=O)N4C3)n3ccnc(N)c23)ccc1[C@@](C)(O)c1cccc(C2CC2)c1 [Example 99, (6R,8aS)-6-(8-amino-1-{4-[(1S)-1-(3-cyclopropylphenyl)-1-hydroxyethyl]-3-methoxyphenyl}imidazo [1,5-a]pyrazin-3-yl)hexahydroindolizin-3(2H)-one] | 8.00 | 5.93 | – | – | –
CC(O)(c1cccc(C(F)(F)F)c1)c1ccc(-c2nc([C@@H]3CC[C@H]4CCC(=O)N4C3)n3ccnc(N)c23)c(Cl)c1 (stereo partly drawn) [Example 100, (6R,8aS)-6-[8-amino-1-(2-chloro-4-{1-hydroxy-1-[3-(trifluoromethyl)phenyl]ethyl}phenyl)imidazo [1,5-a]pyrazin-3-yl]hexahydroindolizin-3(2H)-one] | 7.76 | 6.51 | – | – | –
C[C@](O)(c1cccc(C(F)(F)F)c1)c1ccc(-c2nc([C@@H]3CC[C@H]4CCC(=O)N4C3)n3ccnc(N)c23)c(F)c1 [Example 101, (6R,8aS)-6-[8-amino-1-(2-fluoro-4-{(1S)-1-hydroxy-1-[3-(trifluoromethyl)phenyl]ethyl}phenyl)imidazo [1,5-a]pyrazin-3-yl]hexahydroindolizin-3(2H)-one] | 6.11 | 6.43 | – | – | –
C[C@@](O)(c1cccc(C(F)(F)F)c1)c1ccc(-c2nc([C@@H]3CC[C@H]4CCC(=O)N4C3)n3ccnc(N)c23)c(F)c1 [Example 102, (6R,8aS)-6-[8-amino-1-(2-fluoro-4-{(1R)-1-hydroxy-1-[3-(trifluoromethyl)phenyl]ethyl}phenyl)imidazo [1,5-a]pyrazin-3-yl]hexahydroindolizin-3(2H)-one] | 8.80 | 5.77 | – | – | –
Cc1cc([C@@](C)(O)c2cccc(C(F)(F)F)c2)ccc1-c1nc([C@@H]2CC[C@H]3CCC(=O)N3C2)n2ccnc(N)c12 [Example 103, (6R,8aS)-6-[8-amino-1-(4-{(1R)-1-hydroxy-1-[3-(trifluoromethyl)phenyl]-ethyl}-2-methylphenyl)imidazo [1,5-a]pyrazin-3-yl]hexahydroindolizin-3(2H)-one] | 6.00 | 6.31 | – | – | –
Cc1cc([C@](C)(O)c2cccc(C(F)(F)F)c2)ccc1-c1nc([C@@H]2CC[C@H]3CCC(=O)N3C2)n2ccnc(N)c12 [Example 104, (6R,8aS)-6-[8-amino-1-(4-{(1S)-1-hydroxy-1-[3-(trifluoromethyl)phenyl]ethyl}-2-methylphenyl)imidazo [1,5-a]pyrazin-3-yl]hexahydroindolizin-3(2H)-one] | 7.97 | 5.77 | – | – | –
CC(O)(c1cccc(C(F)(F)F)c1)c1ccc(-c2nc([C@@H]3CC[C@H]4CCC(=O)N4C3)n3ccnc(N)c23)c(C(F)(F)F)c1 (stereo partly drawn) [Example 105, (6R,8aS)-6-{8-amino-1-[4-{1-hydroxy-1-[3-(trifluoromethyl)phenyl]ethyl}-2-(trifluoromethyl)phenyl]imidazo[1,5-a]pyrazin-3-yl}hexahydroindolizin-3(2H)-one] | 6.00 | 6.07 | – | – | –
Nc1nccn2c([C@@H]3CC[C@H]4CCC(=O)N4C3)nc(-c3ccc([C@@](O)(CO)c4cccc(C(F)(F)F)c4)cc3)c12 [Example 106, (6R,8aS)-6-[8-amino-1-(4-{(1S)-1,2-dihydroxy-1-[3-(trifluoromethyl)phenyl]ethyl}phenyl)imidazo [1,5-a]pyrazin-3-yl]hexahydroindolizin-3(2H)-one] | 6.82 | 5.16 | – | – | –
Nc1nccn2c([C@@H]3CC[C@H]4CCC(=O)N4C3)nc(-c3ccc([C@](O)(CO)c4cccc(C(F)(F)F)c4)cc3)c12 [Example 107, (6R,8aS)-6-[8-amino-1-(4-{(1R)-1,2-dihydroxy-1-[3-(trifluoromethyl)phenyl]ethyl}phenyl)imidazo [1,5-a]pyrazin-3-yl]hexahydroindolizin-3(2H)-one] | 6.03 | 6.28 | – | – | –
Nc1nccn2c([C@@H]3CC[C@H]4CCC(=O)N4C3)nc(-c3ccc(C(O)(c4cccc(C(F)(F)F)c4)C(F)F)cc3)c12 (stereo partly drawn) [Example 108, (6R,8aS)-6-[8-amino-1-(4-{2,2-difluoro-1-hydroxy-1-[3-(trifluoromethyl)phenyl]ethyl}phenyl)imidazo [1,5-a]pyrazin-3-yl]hexahydroindolizin-3(2H)-one] | 6.17 | – | – | – | 6.33
CC(C)(c1cccc([C@@](C)(O)c2ccc(-c3nc([C@@H]4CC[C@H]5CCC(=O)N5C4)n4ccnc(N)c34)cc2)c1)C(F)(F)F [Example 109, (6R,8aS)-6-[8-amino-1-(4-{(1S)-1-hydroxy-1-[3-(2,2,2-trifluoro-1,1-dimethylethyl)phenyl]ethyl}phenyl)imidazo[1,5-a]pyrazin-3-yl]hexahydroindolizin-3(2H)-one] | 7.35 | 6.05 | – | – | –
CC(C)(c1cccc([C@](C)(O)c2ccc(-c3nc([C@@H]4CC[C@H]5CCC(=O)N5C4)n4ccnc(N)c34)cc2)c1)C(F)(F)F [Example 110, (6R,8aS)-6-[8-amino-1-(4-{(1R)-1-hydroxy-1-[3-(2,2,2-trifluoro-1,1-dimethylethyl)phenyl]ethyl}phenyl)imidazo[1,5-a]pyrazin-3-yl]hexahydroindolizin-3(2H)-one] | 9.02 | 5.77 | – | – | –
C[C@](O)(c1ccc(-c2nc([C@@H]3CC[C@H]4CCC(=O)N4C3)n3ccnc(N)c23)cc1)c1ccc(C(F)(F)F)s1 [Example 111, (6R,8aS)-6-[8-amino-1-(4-{(1S)-1-hydroxy-1-[5-(trifluoromethyl)thiophen-2-yl]ethyl}phenyl)imidazo [1,5-a]pyrazin-3-yl]hexahydroindolizin-3(2H)-one] | 6.00 | – | – | – | 6.14
